Data on 23 molecules can be found in patent US11142526B2, “Spirocycle compounds and methods of making and using same” (H. Lundbeck A/S, priority 2017, dated 2021).

Read-outs that look alike come from different tables or passages of the source.

Test [1] deals with MAGL (Homo sapiens (Human), UniProt Q99685). As to the kind of experiment: In vitro competitive activity-based protein profiling (gel-based, FP-Rh or HT-01 probe). Conditions: for inhibition at 1 µM: read-out: MAGL % Inhibition at 1 μM (human PFC). It is filed as biochemical. As to the method: In Vitro Competitive Activity-Based Protein Profiling.
Sequence of MAGL (Homo sapiens (Human), UniProt Q99685) (Q99685 whole entry): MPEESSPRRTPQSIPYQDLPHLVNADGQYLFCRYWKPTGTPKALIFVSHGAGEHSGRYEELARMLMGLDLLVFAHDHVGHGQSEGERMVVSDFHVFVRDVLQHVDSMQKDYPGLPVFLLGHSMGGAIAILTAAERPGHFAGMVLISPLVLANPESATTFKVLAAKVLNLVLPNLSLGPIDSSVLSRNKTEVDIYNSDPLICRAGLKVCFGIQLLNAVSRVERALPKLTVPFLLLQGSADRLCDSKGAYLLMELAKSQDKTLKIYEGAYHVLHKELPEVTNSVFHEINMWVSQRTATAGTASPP
Proteomes (human prefrontal cortex or cell membrane fractions) (50 μL, 1.0 mg/mL total protein concentration) were preincubated with varying concentrations of inhibitors at 37° C. After 30 min, FP-Rh or HT-01 (1.0 μL, 50 μM in DMSO) was added and the mixture was incubated for another 30 min at room temperature. Reactions were quenched with SDS loading buffer (15 μL—4×) and run on SDS-PAGE.

Test [2] concerns the target MAGL (Mus musculus (Mouse), UniProt O35678). As to the kind of experiment: In vitro competitive activity-based protein profiling, mouse brain proteome. The conditions noted are these: for inhibition at 1 µM: mouse; for IC50: mouse brain. Type of test: biochemical.
The mark [3] stands for this setting: human PC3, read-out: MAGL Human PC3 (IC50).
The mark [4] stands for this setting: human PFC (prefrontal cortex), read-out: MAGL Human PFC (IC50).

Sequence of MAGL (Mus musculus (Mouse), UniProt O35678) (O35678 whole entry): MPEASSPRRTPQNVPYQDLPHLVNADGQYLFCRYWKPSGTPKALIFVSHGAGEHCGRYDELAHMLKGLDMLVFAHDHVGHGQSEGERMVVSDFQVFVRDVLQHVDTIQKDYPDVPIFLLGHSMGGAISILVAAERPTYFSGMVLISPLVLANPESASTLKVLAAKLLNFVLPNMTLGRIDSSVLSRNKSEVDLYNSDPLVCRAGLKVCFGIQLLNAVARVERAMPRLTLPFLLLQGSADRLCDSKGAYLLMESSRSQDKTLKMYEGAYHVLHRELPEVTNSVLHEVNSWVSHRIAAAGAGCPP

Broadly, the IC50 is the concentration at which inhibition is half-maximal. A word on the inhibition: it is the share of the control response that was lost under treatment. As for `O=C(OC(C(F)(F)F)C(F)(F)F)N1CCC2(CCCN2C(=O)c2nc3ccccc3s2)CC1` [Example 75, 1,1,1,3,3,3-Hexafluoropropan-2-yl 1-(benzo[d]thiazole-2-carbonyl)-1,8-diazaspiro[4.5] decane-8-carboxylate], the IC50 in test [1] (setting [3]) was less than 100 nM. In test [2], this molecule showed an inhibition at 1 µM of more than 75% and an IC50 of less than 100 nM.

Turning to `Cn1ccc(C(=O)N2CCCC23CCN(C(=O)OC(C(F)(F)F)C(F)(F)F)CC3)n1` [Example 79, 1,1,1,3,3,3-Hexafluoropropan-2-yl 1-(1-methyl-1H-pyrazole-3-carbonyl)-1,8-diazaspiro[4.5] decane-8-carboxylate], the IC50 in test [1] (setting [3]) was less than 100 nM; in test [2], 100 to 1000 nM. In test [2], this molecule showed an inhibition at 1 µM of more than 75%.

For the molecule `O=C(OC(C(F)(F)F)C(F)(F)F)N1CCC2(CCCN2C(=O)c2ccc3nccn3c2)CC1` [Example 85, 1,1,1,3,3,3-Hexafluoropropan-2-yl 1-(imidazo[1,2-a]pyridine-6-carbonyl)-1,8-diazaspiro[4.5] decane-8-carboxylate], the IC50 in test [1] (setting [3]) is less than 100 nM. In test [2], this molecule yielded an inhibition at 1 µM of more than 75% and a half-inhibitory concentration (IC50) of 100 to 1000 nM.

As to `O=C(OC(C(F)(F)F)C(F)(F)F)N1CCC2(CCCN2C(=O)c2ccc3scnc3c2)CC1` [Example 86, 1,1,1,3,3.3-Hexafluoropropan-2-yl 1-(benzo[d]thiazole-5-carbonyl)-1,8-diazaspiro[4.5] decane-8-carboxylate], the IC50 in test [1] (setting [3]) was less than 100 nM. In test [2], this molecule yielded an inhibition at 1 µM of more than 75% and an IC50 of less than 100 nM.

Turning to `O=C(OC(C(F)(F)F)C(F)(F)F)N1CCC2(CCCN2C(=O)c2ccc3ocnc3c2)CC1` [Example 87, 1,1,1,3,3.3-Hexafluoropropan-2-yl 1-(benzo[d]oxazole-5-carbonyl)-1,8-diazaspiro[4.5] decane-8-carboxylate], the half-maximal inhibitory concentration (IC50) in test [1] (setting [3]) was less than 100 nM. In addition, in test [2], the inhibition at 1 µM was more than 75% and the IC50 was less than 100 nM.

With `O=C(OC(C(F)(F)F)C(F)(F)F)N1CCC2(CCCN2C(=O)c2cnn(Cc3ccccc3)c2)CC1` [Example 88, 1,1,1,3,3,3-Hexafluoropropan-2-yl 1-(1-benzyl-1H-pyrazole-4-carbonyl)-1,8-diazaspiro[4.5] decane-8-carboxylate], the concentration for half-maximal inhibition (IC50) in test [1] (setting [3]) and in test [2] was less than 100 nM each time. Besides, in test [2], the inhibition at 1 µM is more than 75%.

Consider `O=C(OC(C(F)(F)F)C(F)(F)F)N1CCC2(CCCN2C(=O)c2ccn(Cc3ccccc3)n2)CC1` [Example 91, 1,1,1,3,3,3-Hexafluoropropan-2-yl 1-(1-benzyl-1H-pyrazole-3-carbonyl)-1,8-diazaspiro[4.5] decane-8-carboxylate], for which the half-maximal inhibitory concentration (IC50) in test [1] (setting [3]) is less than 100 nM. Besides, in test [2], the inhibition at 1 µM is more than 75% and the half-inhibitory concentration (IC50) was less than 100 nM.

For `O=C(OC(C(F)(F)F)C(F)(F)F)N1CCC2(CCCN2C(=O)c2ccn(-c3ccc(Cl)cc3)n2)CC1` [Example 92, 1,1,1,3,3,3-Hexafluoropropan-2-yl 1-(1-(4-chlorophenyl)-1H-pyrazole-3-carbonyl)-1,8-diazaspiro[4.5] decane-8-carboxylate], the IC50 in test [1] (setting [3]) is less than 100 nM. For the same molecule, in test [2], the inhibition at 1 µM was more than 75% and the IC50 was less than 100 nM.

Consider `O=C(OC(C(F)(F)F)C(F)(F)F)N1CCC2(CCCN2C(=O)c2cc3cccc(F)c3s2)CC1` [Example 96, 1,1,1,3,3,3-Hexafluoropropan-2-yl 1-(7-fluorobenzo[b]thiophene-2-carbonyl)-1,8-diazaspiro[4.5] decane-8-carboxylate], for which the IC50 in test [1] (setting [3]), in test [1] (setting [4]) and in test [2] was less than 100 nM each time. Moreover, the inhibition at 1 µM in test [2] was more than 75%.

`Cc1c(C(=O)N2CCCC23CCN(C(=O)OC(C(F)(F)F)C(F)(F)F)CC3)[nH]c2ccc(F)cc12` [Example 104, 1,1,1,3,3,3-Hexafluoropropan-2-yl 1-(5-fluoro-3-methyl-1H-indole-2-carbonyl)-1,8-diazaspiro[4.5]decane-8-carboxylate]: the IC50 in test [1] (setting [3]) was less than 100 nM. In test [2], the inhibition at 1 µM is more than 75% and the IC50 is less than 100 nM.

In the case of `O=C(OC(C(F)(F)F)C(F)(F)F)N1CCC2(CCCN2Cc2cc3cc(Cl)cc(Cl)c3[nH]2)CC1` [Example 110, 1,1,1,3,3,3-Hexafluoropropan-2-yl 1-((5,7-dichloro-1H-indol-2-yl)methyl)-1,8-diazaspiro[4.5] decane-8-carboxylate], the IC50 in test [1] (setting [4]) is less than 100 nM. In test [2], the inhibition at 1 µM is more than 75% and the IC50 was less than 100 nM.

Turning to `O=C(OC(C(F)(F)F)C(F)(F)F)N1CCC2(CCCN2Cc2cc3cc(Cl)c(Cl)cc3[nH]2)CC1` [Example 112, 1,1,1,3,3.3-Hexafluoropropan-2-yl 1-((5,6-dichloro-1H-indol-2-yl)methyl)-1,8-diazaspiro[4.5] decane-8-carboxylate], the inhibition at 1 µM in test [1] (human PFC (prefrontal cortex)) and in test [2] was more than 75% each time.

Take `CC(C)n1cc(CN2CCC3(CCN(C(=O)OC(C(F)(F)F)C(F)(F)F)CC3)C2)c(-c2cccc(C(=O)O)c2)n1` [Example 113, 3-(4-((8-(((1,1,1,3,3,3-Hexafluoropropan-2-yl)oxy)carbonyl)-2,8-diazaspiro[4.5]decan-2-yl)methyl)-1-isopropyl-1H-pyrazol-3-yl) benzoic acid]: the inhibition at 1 µM in test [1] (human PFC (prefrontal cortex)) and in test [2] was 25 to 75% each time.

Consider `Cc1cc(Cl)c2nc(CN3CCCC34CCN(C(=O)OC(C(F)(F)F)C(F)(F)F)CC4)cn2c1` [Example 115, 1,1,1,3,3,3-Hexafluoropropan-2-yl 1-((8-chloro-6-methylimidazo [1,2-a]pyridin-2-yl)methyl)-1,8-diazaspiro[4.5] decane-8-carboxylate], for which the inhibition at 1 µM in test [1] (human PFC (prefrontal cortex)) and in test [2] was more than 75% each time. For the same molecule, the IC50 in test [1] (setting [3]) was less than 100 nM.

In the case of `O=C(OC(C(F)(F)F)C(F)(F)F)N1CCC2(CCCN2C(=O)c2cn3cc(C(F)(F)F)cc(Cl)c3n2)CC1` [Example 116, 1,1,1,3,3,3-Hexafluoropropan-2-yl 1-(8-chloro-6-(trifluoromethyl)imidazo[1,2-a]pyridine-2-carbonyl)-1,8-diazaspiro[4.5] decane-8-carboxylate], the inhibition at 1 µM in test [1] (human PFC (prefrontal cortex)) and in test [2] was more than 75% in each case.

Turning to `O=C(OC(C(F)(F)F)C(F)(F)F)N1CCC2(CCCN2C(=O)c2cnc(Cl)nc2N2CCCC2)CC1` [Example 117, 1,1,1,3,3,3-Hexafluoropropan-2-yl 1-(2-chloro-4-(pyrrolidin-1-yl)pyrimidine-5-carbonyl)-1,8-diazaspiro [4.5]decane-8-carboxylate], the inhibition at 1 µM in test [1] (human PFC (prefrontal cortex)) and in test [2] was more than 75% throughout. The IC50 in test [1] (setting [3]) is less than 100 nM.

Take `O=C(O)Cn1cc(CN2CCCC23CCN(C(=O)OC(C(F)(F)F)C(F)(F)F)CC3)c(-c2cccc(Cl)c2)n1` [Example 118, 2-(3-(3-Chlorophenyl)-4-((8-(((1,1,1,3,3,3-hexafluoropropan-2-yl)oxy)carbonyl)-1,8-diazaspiro[4.5]decan-1-yl)methyl)-1H-pyrazol-1-yl)acetic acid]: the inhibition at 1 µM in test [1] (human PFC (prefrontal cortex)) and in test [2] was more than 75% throughout. The IC50 in test [1] (setting [3]) was less than 100 nM.

Consider `O=C(OC(C(F)(F)F)C(F)(F)F)N1CCC2(CCCN2C(=O)c2cc(N3CCCC3)nc(Cl)n2)CC1` [Example 119, 1,1,1,3,3,3-Hexafluoropropan-2-yl 1-(2-chloro-6-(pyrrolidin-1-yl)pyrimidine-4-carbonyl)-1,8-diazaspiro [4.5]decane-8-carboxylate], for which the inhibition at 1 µM in test [1] (human PFC (prefrontal cortex)) and in test [2] was more than 75% in each case. The IC50 in test [1] (setting [3]) and in test [1] (setting [4]) was less than 100 nM each time.

`Cc1cc(C(F)(F)F)n2nc(C(=O)N3CCCC34CCN(C(=O)OC(C(F)(F)F)C(F)(F)F)CC4)c(Cl)c2n1` [Example 121, 1,1,1,3,3,3-Hexafluoropropan-2-yl 1-(3-chloro-5-methyl-7-(trifluoromethyl)pyrazolo[1,5-a]pyrimidine-2-carbonyl)-1,8-diazaspiro[4.5] decane-8-carboxylate]: the inhibition at 1 µM in test [1] (human PFC (prefrontal cortex)) and in test [2] was more than 75% throughout. Also, in test [1] (setting [4]), the IC50 is less than 100 nM.

Regarding `O=C(O)C1CCN(c2ncccc2CN2CCCC23CCN(C(=O)OC(C(F)(F)F)C(F)(F)F)CC3)CC1` [Example 124, 1-(3-((8-(((1,1,1,3,3,3-HexafIuoropropan-2-yl)oxy)carbonyl)-1,8-diazaspiro[4.5]decan-1-yl)methyl)pyridin-2-yl)piperidine-4-carboxylic acid], the inhibition at 1 µM is 25 to 75% in test [1] (human PFC (prefrontal cortex)) and more than 75% in test [2].

For `Cc1c(C(=O)N2CCCC23CCN(C(=O)OC(C(F)(F)F)C(F)(F)F)CC3)c(Cl)nn1C` [Example 125, 1,1,1,3,3,3-Hexafluoropropan-2-yl 1-(3-chloro-1,5-dimethyl-1H-pyrazole-4-carbonyl)-1,8-diazaspiro[4.5] decane-8-carboxylate], the inhibition at 1 µM in test [1] (human PFC (prefrontal cortex)) and in test [2] was more than 75% in each case. The IC50 in test [1] (setting [3]) is less than 100 nM.

For `Cc1ncncc1C(=O)N1CCCC12CCN(C(=O)OC(C(F)(F)F)C(F)(F)F)CC2` [Example 127, 1,1,1,3,3,3-Hexafluoropropan-2-yl 1-(4-methyl-pyrimidine-5-carbonyl)-1,8-diazaspiro[4.5] decane-8-carboxylate], the inhibition at 1 µM in test [1] (human PFC (prefrontal cortex)) was 25 to 75%; in test [2] it was less than 25%.

As to `Cc1nc(C)c(C(=O)N2CCCC23CCN(C(=O)OC(C(F)(F)F)C(F)(F)F)CC3)o1` [Example 128, 1,1,1,3,3,3-Hexafluoropropan-2-yl 1-(2,4-dimethyloxazole-5-carbonyl)-1,8-diazaspiro[4.5] decane-8-carboxylate], the inhibition at 1 µM in test [1] (human PFC (prefrontal cortex)) and in test [2] was more than 75% each time. The IC50 in test [1] (setting [3]) was less than 100 nM.
